Laboratory results: US9108930B2, “N1- and N2-carbamoyl-1,2,3-triazole serine hydrolase inhibitors and methods” (The Scripps Research Institute, priority 2011, dated 2015)

Assays:
[1] = biological target: T1, APEH (Mus musculus, UniProt Q8R146); assay: In situ inhibition in cultured mouse T-cells, gel-based competitive ABPP; format: cell-based; conditions: 4 h at 37° C.; read-out: potency of APEH inactivation in cultured T-cells
T1 sequence (Q8R146 1-732): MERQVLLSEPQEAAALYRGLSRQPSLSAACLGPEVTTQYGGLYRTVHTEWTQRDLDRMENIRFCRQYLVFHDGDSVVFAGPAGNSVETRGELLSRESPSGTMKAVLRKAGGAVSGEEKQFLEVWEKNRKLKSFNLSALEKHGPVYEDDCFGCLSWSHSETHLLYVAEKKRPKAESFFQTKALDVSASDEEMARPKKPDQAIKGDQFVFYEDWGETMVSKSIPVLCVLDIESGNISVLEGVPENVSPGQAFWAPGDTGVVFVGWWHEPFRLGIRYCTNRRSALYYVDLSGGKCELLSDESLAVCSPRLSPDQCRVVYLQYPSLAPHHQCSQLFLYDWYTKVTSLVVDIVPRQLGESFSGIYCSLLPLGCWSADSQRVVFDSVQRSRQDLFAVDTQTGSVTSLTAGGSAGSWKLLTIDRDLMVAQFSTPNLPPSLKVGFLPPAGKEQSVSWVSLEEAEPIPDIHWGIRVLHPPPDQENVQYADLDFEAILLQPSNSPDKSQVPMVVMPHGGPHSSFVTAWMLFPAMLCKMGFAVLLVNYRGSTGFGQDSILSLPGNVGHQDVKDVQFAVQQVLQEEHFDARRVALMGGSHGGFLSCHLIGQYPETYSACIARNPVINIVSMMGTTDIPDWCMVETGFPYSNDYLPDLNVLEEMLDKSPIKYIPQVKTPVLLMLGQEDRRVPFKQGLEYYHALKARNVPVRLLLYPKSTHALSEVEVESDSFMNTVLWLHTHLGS

[2] = biological target: T2, ACHE (Mus musculus, UniProt P21836); assay: ABPP-SILAM of brain tissue from treated mice; format: in vivo; conditions: mouse brain proteome of treated mice
T2 construct: from tissue; host or cells: mouse brain
T2 sequence (P21836 32-614): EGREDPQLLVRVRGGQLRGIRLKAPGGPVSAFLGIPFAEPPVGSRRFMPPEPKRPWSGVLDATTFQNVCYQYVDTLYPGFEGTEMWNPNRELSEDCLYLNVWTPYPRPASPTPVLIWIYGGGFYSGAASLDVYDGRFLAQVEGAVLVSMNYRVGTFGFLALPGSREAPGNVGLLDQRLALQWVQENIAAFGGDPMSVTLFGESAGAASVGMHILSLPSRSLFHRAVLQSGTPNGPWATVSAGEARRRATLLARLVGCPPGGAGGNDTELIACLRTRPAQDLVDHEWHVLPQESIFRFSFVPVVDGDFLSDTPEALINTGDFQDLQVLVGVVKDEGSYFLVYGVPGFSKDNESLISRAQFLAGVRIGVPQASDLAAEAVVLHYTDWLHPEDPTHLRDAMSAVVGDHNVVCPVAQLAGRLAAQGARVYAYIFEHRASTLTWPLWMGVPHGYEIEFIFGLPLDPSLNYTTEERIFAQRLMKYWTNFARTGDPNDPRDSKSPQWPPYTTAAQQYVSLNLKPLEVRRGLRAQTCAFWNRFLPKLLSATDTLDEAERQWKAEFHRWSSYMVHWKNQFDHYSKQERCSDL
Description: (§1) The potency and selectivity of 1,2,3-triazole ureas in vivo also was investigated. Mice were treated with the APEH inhibitor AA74-1 at various doses (0.2-1.6 mg/kg; PEG300 or 18:1:1 saline/ethanol/emulphor intraperitoneally) and sacrificed after 4 h. Brains and hearts were removed, homogenized, and analyzed by gel-based competitive ABPP. […] Finally, the possibility of extending ABPP-SILAC for the characterization of inhibitor selectivity in vivo was explored by taking advantage of recently described protocols for stable isotope labeling in mammals (SILAM). In this approach, brain tissues from vehicle- and AA74-1-treated mice were separately mixed with equivalent amounts of brain tissue from ‘heavy’ amino acid-fed mice, and the samples were then labeled with FP-biotin, enriched by avidin chromatography, analyzed by LC-MS, and SH activities quantified by measuring the ratio-of-ratios for observed peptide signals. […] The ratio-of-ratio signals for APEH indicated greater than 90% inhibition of this enzyme in AA74-1-treated animals (FIG. 5b, top), consistent with average spectral count values (14 and 1 spectral counts for APEH in vehicle-treated versus AA74-1-treated mice, respectively; FIG. 5b, bottom). […] ACHE, an enzyme that is targeted by other reported NHU inhibitors, was not inhibited by AA74-1 in either mouse brain (FIG. 5b) or transfected cell (FIG. 16) proteomes.
(§2) C57BL6 mice were labeled with ^15N. Briefly, each mouse was fed an ^15N-labeled protein diet starting immediately after weaning which continued for the next 10 weeks. The ^15N-labeled diet was generated by combining spirulina biomass ^15N-labeled (Cambridge Isotopes) with protein-free diet powder (Harlan TD 93328) in a 1:2 (wt/wt) ratio and an appropriate amount of H2O to generate a dough. This dough is then cut into 2-cm thick pellets and dried at 60° C. for 2-4 h and then at 35° C. overnight using an Excalibur food dehydrator. These ^15N-labeled food pellets are then used to replace normal chow. […] Brains were determined to be 95% labeled by mass spectrometry with ^15N and used for quantitative analysis. […]

[3] = biological target: T1, APEH; assay: ABPP-SILAM of brain tissue from treated mice; format: in vivo; conditions: treated mice (vehicle 14)
Description: as §1, §2

[4] = biological target: T3, PREPL (Mus musculus, UniProt Q8C167); assay: ABPP-SILAM of brain tissue from treated mice; format: in vivo; conditions: may not represent actual changes
T3 construct: from tissue; host or cells: mouse brain
T3 sequence (Q8C167 whole entry): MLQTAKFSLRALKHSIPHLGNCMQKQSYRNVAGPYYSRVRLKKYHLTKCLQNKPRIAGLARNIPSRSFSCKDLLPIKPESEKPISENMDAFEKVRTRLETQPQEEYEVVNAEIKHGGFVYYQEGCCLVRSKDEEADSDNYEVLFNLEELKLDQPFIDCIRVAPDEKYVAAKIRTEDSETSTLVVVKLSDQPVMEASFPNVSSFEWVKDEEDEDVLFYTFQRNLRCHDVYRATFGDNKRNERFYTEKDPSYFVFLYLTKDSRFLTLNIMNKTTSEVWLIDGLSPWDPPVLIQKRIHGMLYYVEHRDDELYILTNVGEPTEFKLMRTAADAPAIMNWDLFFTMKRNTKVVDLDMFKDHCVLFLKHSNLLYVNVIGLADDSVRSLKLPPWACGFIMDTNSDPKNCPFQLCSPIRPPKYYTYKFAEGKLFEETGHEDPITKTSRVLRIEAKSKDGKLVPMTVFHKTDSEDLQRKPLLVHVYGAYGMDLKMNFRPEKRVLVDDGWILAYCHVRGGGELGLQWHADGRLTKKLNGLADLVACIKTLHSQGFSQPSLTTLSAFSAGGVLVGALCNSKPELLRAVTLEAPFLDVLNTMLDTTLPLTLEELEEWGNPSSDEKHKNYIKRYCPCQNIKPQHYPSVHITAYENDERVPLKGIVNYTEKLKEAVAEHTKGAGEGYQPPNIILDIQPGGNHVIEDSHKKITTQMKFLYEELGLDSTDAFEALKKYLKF
Description: as §1, §2

For CC(C)CC(O)(CC(C)C)c1cnn(C(=O)N2CCCC2)n1 [AA74-1], the IC50 [1] was 0.14 to 0.17 nM, the “ACHE inhibition in mouse brain” value [2] was “not inhibited” and the “average spectral count for APEH” value [3] was 1 spectral counts. The “partial inhibition of PREPL suggested by ratio-of-ratio signals” value [4] was 50-60%.
